Test results: the supplement of paper PMC10307832

Tests used:
Assay in all cases: relative viability (nuclei count vs DMSO), 5 days (fraction); higher = more cells survive
201T = test system: 201T
Procedure, shortened: (§1)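 Five library-drug doses in √10 steps were combined with a fixed anchor-drug dose, or a single drug was given alone, by pin tool to lung cancer cell lines in 1536-well plates the day after seeding. Nuclei were stained and counted after 5 days. Relative viability is the nuclei count in treated wells over that in vehicle wells, taken as the median of duplicate plates.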

BEN = test system: BEN
Procedure, shortened: as §1

HCC-366 = test system: HCC-366
Procedure, shortened: as §1

HCC-44 = test system: HCC-44
Procedure, shortened: as §1

HCC-78 = test system: HCC-78
Procedure, shortened: as §1

LK-2 = test system: LK-2
Procedure, shortened: as §1

LOU-NH91 = test system: LOU-NH91
Procedure, shortened: as §1

NCI-H1355 = test system: NCI-H1355
Procedure, shortened: as §1

NCI-H1650 = test system: NCI-H1650
Procedure, shortened: as §1

NCI-H1666 = test system: NCI-H1666
Procedure, shortened: as §1

NCI-H1734 = test system: NCI-H1734
Procedure, shortened: as §1

NCI-H1755 = test system: NCI-H1755
Procedure, shortened: as §1

NCI-H2009 = test system: NCI-H2009
Procedure, shortened: as §1

NCI-H2228 = test system: NCI-H2228
Procedure, shortened: as §1

NCI-H2347 = test system: NCI-H2347
Procedure, shortened: as §1

NCI-H2405 = test system: NCI-H2405
Procedure, shortened: as §1

NCI-H358 = test system: NCI-H358
Procedure, shortened: as §1

NCI-H520 = test system: NCI-H520
Procedure, shortened: as §1

NCI-H727 = test system: NCI-H727
Procedure, shortened: as §1

NCI-H838 = test system: NCI-H838
Procedure, shortened: as §1

SW 1573 = test system: SW 1573
Procedure, shortened: as §1

UMC-11 = test system: UMC-11
Procedure, shortened: as §1

## O=c1[nH]c2ccccc2n1C1CCN(CCCC(c2ccc(F)cc2)c2ccc(F)cc2)CC1 [Pimozide] + CC(=O)Nc1cccc(-n2c(=O)n(C3CC3)c(=O)c3c(Nc4ccc(I)cc4F)n(C)c(=O)c(C)c32)c1 [Trametinib] (partner 0.02 µM)
201T; first compound 0.08 µM
  relative viability: 0.717
201T; first compound 0.253 µM
  relative viability: 0.726
201T; first compound 0.8 µM
  relative viability: 0.7
201T; first compound 2.53 µM
  relative viability: 0.732
201T; first compound 8 µM
  relative viability: 0.686
BEN; first compound 0.08 µM
  relative viability: 1.17
BEN; first compound 0.253 µM
  relative viability: 1.16
BEN; first compound 0.8 µM
  relative viability: 1.01
BEN; first compound 2.53 µM
  relative viability: 0.984
BEN; first compound 8 µM
  relative viability: 1.29
HCC-366; first compound 0.08 µM
  relative viability: 0.32
HCC-366; first compound 0.253 µM
  relative viability: 0.282
HCC-366; first compound 0.8 µM
  relative viability: 0.361
HCC-366; first compound 2.53 µM
  relative viability: 0.298
HCC-366; first compound 8 µM
  relative viability: 0.34
HCC-44; first compound 0.08 µM
  relative viability: 1.1
HCC-44; first compound 0.253 µM
  relative viability: 1.18
HCC-44; first compound 0.8 µM
  relative viability: 0.913
HCC-44; first compound 2.53 µM
  relative viability: 0.979
HCC-44; first compound 8 µM
  relative viability: 0.887
HCC-78; first compound 0.08 µM
  relative viability: 0.704
HCC-78; first compound 0.8 µM
  relative viability: 0.688
HCC-78; first compound 2.53 µM
  relative viability: 0.776
HCC-78; first compound 8 µM
  relative viability: 0.757
LK-2; first compound 0.08 µM
  relative viability: 0.717
LK-2; first compound 0.253 µM
  relative viability: 0.826
LK-2; first compound 0.8 µM
  relative viability: 0.749
LK-2; first compound 2.53 µM
  relative viability: 0.492
LK-2; first compound 8 µM
  relative viability: 0.727
LOU-NH91; first compound 0.08 µM
  relative viability: 0.649
LOU-NH91; first compound 0.253 µM
  relative viability: 0.822
LOU-NH91; first compound 0.8 µM
  relative viability: 0.755
LOU-NH91; first compound 2.53 µM
  relative viability: 0.841
LOU-NH91; first compound 8 µM
  relative viability: 0.819
NCI-H1355; first compound 0.08 µM
  relative viability: 0.382
NCI-H1355; first compound 0.253 µM
  relative viability: 0.428
NCI-H1355; first compound 0.8 µM
  relative viability: 0.411
NCI-H1355; first compound 2.53 µM
  relative viability: 0.39
NCI-H1355; first compound 8 µM
  relative viability: 0.454
NCI-H1650; first compound 0.08 µM
  relative viability: 0.625
NCI-H1650; first compound 0.253 µM
  relative viability: 0.591
NCI-H1650; first compound 0.8 µM
  relative viability: 0.516
NCI-H1650; first compound 2.53 µM
  relative viability: 0.571
NCI-H1650; first compound 8 µM
  relative viability: 0.718
NCI-H1666; first compound 0.08 µM
  relative viability: 0.888
NCI-H1666; first compound 0.253 µM
  relative viability: 0.804
NCI-H1666; first compound 0.8 µM
  relative viability: 0.835
NCI-H1666; first compound 2.53 µM
  relative viability: 0.866
NCI-H1666; first compound 8 µM
  relative viability: 0.787
NCI-H1734; first compound 0.08 µM
  relative viability: 0.685
NCI-H1734; first compound 0.253 µM
  relative viability: 0.697
NCI-H1734; first compound 0.8 µM
  relative viability: 0.734
NCI-H1734; first compound 2.53 µM
  relative viability: 0.657
NCI-H1734; first compound 8 µM
  relative viability: 0.673
NCI-H1755; first compound 0.08 µM
  relative viability: 0.748
NCI-H1755; first compound 0.253 µM
  relative viability: 0.766
NCI-H1755; first compound 0.8 µM
  relative viability: 0.736
NCI-H1755; first compound 2.53 µM
  relative viability: 0.761
NCI-H1755; first compound 8 µM
  relative viability: 0.712
NCI-H2009; first compound 0.08 µM
  relative viability: 0.256
NCI-H2009; first compound 0.253 µM
  relative viability: 0.276
NCI-H2009; first compound 0.8 µM
  relative viability: 0.284
NCI-H2009; first compound 2.53 µM
  relative viability: 0.321
NCI-H2009; first compound 8 µM
  relative viability: 0.225
NCI-H2228; first compound 0.08 µM
  relative viability: 0.514
NCI-H2228; first compound 0.253 µM
  relative viability: 0.475
NCI-H2228; first compound 0.8 µM
  relative viability: 0.522
NCI-H2228; first compound 2.53 µM
  relative viability: 0.418
NCI-H2228; first compound 8 µM
  relative viability: 0.167
NCI-H2347; first compound 0.08 µM
  relative viability: 0.288
NCI-H2347; first compound 0.253 µM
  relative viability: 0.307
NCI-H2347; first compound 0.8 µM
  relative viability: 0.287
NCI-H2347; first compound 2.53 µM
  relative viability: 0.278
NCI-H2347; first compound 8 µM
  relative viability: 0.285
NCI-H2405; first compound 0.08 µM
  relative viability: 0.606
NCI-H2405; first compound 0.253 µM
  relative viability: 0.65
NCI-H2405; first compound 0.8 µM
  relative viability: 0.621
NCI-H2405; first compound 2.53 µM
  relative viability: 0.491
NCI-H2405; first compound 8 µM
  relative viability: 0.36
NCI-H358; first compound 0.08 µM
  relative viability: 0.135
NCI-H358; first compound 0.253 µM
  relative viability: 0.147
NCI-H358; first compound 0.8 µM
  relative viability: 0.137
NCI-H358; first compound 2.53 µM
  relative viability: 0.13
NCI-H358; first compound 8 µM
  relative viability: 0.126
NCI-H520; first compound 0.08 µM
  relative viability: 0.632
NCI-H520; first compound 0.253 µM
  relative viability: 0.68
NCI-H520; first compound 0.8 µM
  relative viability: 0.627
NCI-H520; first compound 2.53 µM
  relative viability: 0.601
NCI-H520; first compound 8 µM
  relative viability: 0.54
NCI-H727; first compound 0.08 µM
  relative viability: 0.396
NCI-H727; first compound 0.253 µM
  relative viability: 0.426
NCI-H727; first compound 0.8 µM
  relative viability: 0.383
NCI-H727; first compound 2.53 µM
  relative viability: 0.443
NCI-H727; first compound 8 µM
  relative viability: 0.403
NCI-H838; first compound 0.08 µM
  relative viability: 0.536
NCI-H838; first compound 0.253 µM
  relative viability: 0.561
NCI-H838; first compound 0.8 µM
  relative viability: 0.482
NCI-H838; first compound 2.53 µM
  relative viability: 0.528
NCI-H838; first compound 8 µM
  relative viability: 0.571
SW 1573; first compound 0.08 µM
  relative viability: 0.645
SW 1573; first compound 0.253 µM
  relative viability: 0.448
SW 1573; first compound 0.8 µM
  relative viability: 0.394
SW 1573; first compound 2.53 µM
  relative viability: 0.308
SW 1573; first compound 8 µM
  relative viability: 0.344
UMC-11; first compound 0.08 µM
  relative viability: 0.602
UMC-11; first compound 0.253 µM
  relative viability: 0.675
UMC-11; first compound 0.8 µM
  relative viability: 0.655
UMC-11; first compound 2.53 µM
  relative viability: 0.681
UMC-11; first compound 8 µM
  relative viability: 0.918
